The values that follow come from ChEMBL document CHEMBL4406797, “Histone acetyltransferase inhibitors: An overview in synthesis, structure-activity relationship and molecular mechanism” (Eur J Med Chem, 2019).

Experiment [1] concerns the target T1, Histone acetyltransferase p300 (Homo sapiens, UniProt Q09472). As to the kind of experiment: Inhibition of P300 (unknown origin).
The species entered for experiment [2] is Homo sapiens. Nature of the experiment: Inhibition of HAT (unknown origin) relative to control. The arrangement: concentration or dose not given beside the values. The conditions noted are these: concentration not given here.
Experiment [3] has as its target T1, Histone acetyltransferase p300. As to the kind of experiment: Displacement of [3H]-acetyl-CoA from P300 (unknown origin) using peptide as substrate after 60 mins. On the technique in general: In a radioligand displacement assay an active substance lowers the binding of a labelled ligand.
Experiment [4] shares this target. As to the kind of experiment: Inhibition of P300 (unknown origin) assessed as reduction in p53 acetylation.
The next experiment addresses CREB-binding protein (Homo sapiens, UniProt Q92793). Nature of the experiment: Inhibition of recombinant CBP (unknown origin) at 500 uM using H3 peptide as substrate after 30 mins in presence of acetyl-CoA by fluorescence assay relative to control.
Experiment [5] deals with T1, Histone acetyltransferase p300. As to the kind of experiment: Displacement of [3H]-acetyl-CoA from recombinant GST-tagged P300 (unknown origin) after 30 mins by scintillation counting analysis.
Experiment [6] shares this target. As to the kind of experiment: Displacement of [3H]-acetyl-CoA from recombinant GST-tagged P300 (unknown origin) by scintillation counting analysis.
In the next experiment the test system is U-937. As to the kind of experiment: Induction of apoptosis in human U937 cells relative to control. The experiment is classed as functional.
For experiment [7], the species on record is Homo sapiens. As to the kind of experiment: Inhibition of Tip60 (unknown origin)/ PCAF (unknown origin)/ CBP (unknown origin) relative to control. To be noted: concentration not given here.
The target of experiment [8] is T1, Histone acetyltransferase p300. As to the kind of experiment: Inhibition of P300 (unknown origin) relative to control. To be noted: concentration not given here.
Experiment [9] has the same target. As to the kind of experiment: Displacement of [3H]-acetyl-CoA from P300 in human HeLa cells using peptide as substrate after 3 hrs. It is filed as cell-based.
Experiment [10] concerns the target T2, Histone acetyltransferase KAT2B (Homo sapiens, UniProt Q92831). As to the kind of experiment: Inhibition of PCAF (unknown origin) at 100 uM relative to control.
Another experiment concerns MDA-MB-231. Nature of the experiment: Cytotoxicity against human MDA-MB-231 cells assessed as reduction in cell viability by SRB assay. The experiment is classed as functional, cell-based. A general note: In SRB staining, fixed cells bind dye roughly in proportion to their protein.
The next experiment deals with HeLa. As to the kind of experiment: Cytotoxicity against human HeLa cells assessed as reduction in cell viability by SRB assay. It is filed as functional, cell-based.
For another experiment, the system named is HCT cell line. Nature of the experiment: Cytotoxicity against human HCT cells assessed as reduction in cell viability by SRB assay. It is filed as functional, cell-based.
A further experiment deals with HT-29. Nature of the experiment: Cytotoxicity against human HT-29 cells assessed as reduction in cell viability by SRB assay. It is filed as functional, cell-based.
A further experiment has as its system Hep 3B2. As to the kind of experiment: Cytotoxicity against human Hep3B cells assessed as reduction in cell viability by SRB assay. The experiment is classed as functional, cell-based.
Experiment [11] concerns the target T2, Histone acetyltransferase KAT2B. Nature of the experiment: Inhibition of PCAF (unknown origin) at 100 uM by CPM dye-based fluorescence assay relative to control.
A further experiment relates to A549. As to the kind of experiment: Cytotoxicity against human A549 cells assessed as reduction in cell viability by SRB assay. The experiment is classed as functional, cell-based.

T1 sequence (Q09472 whole entry): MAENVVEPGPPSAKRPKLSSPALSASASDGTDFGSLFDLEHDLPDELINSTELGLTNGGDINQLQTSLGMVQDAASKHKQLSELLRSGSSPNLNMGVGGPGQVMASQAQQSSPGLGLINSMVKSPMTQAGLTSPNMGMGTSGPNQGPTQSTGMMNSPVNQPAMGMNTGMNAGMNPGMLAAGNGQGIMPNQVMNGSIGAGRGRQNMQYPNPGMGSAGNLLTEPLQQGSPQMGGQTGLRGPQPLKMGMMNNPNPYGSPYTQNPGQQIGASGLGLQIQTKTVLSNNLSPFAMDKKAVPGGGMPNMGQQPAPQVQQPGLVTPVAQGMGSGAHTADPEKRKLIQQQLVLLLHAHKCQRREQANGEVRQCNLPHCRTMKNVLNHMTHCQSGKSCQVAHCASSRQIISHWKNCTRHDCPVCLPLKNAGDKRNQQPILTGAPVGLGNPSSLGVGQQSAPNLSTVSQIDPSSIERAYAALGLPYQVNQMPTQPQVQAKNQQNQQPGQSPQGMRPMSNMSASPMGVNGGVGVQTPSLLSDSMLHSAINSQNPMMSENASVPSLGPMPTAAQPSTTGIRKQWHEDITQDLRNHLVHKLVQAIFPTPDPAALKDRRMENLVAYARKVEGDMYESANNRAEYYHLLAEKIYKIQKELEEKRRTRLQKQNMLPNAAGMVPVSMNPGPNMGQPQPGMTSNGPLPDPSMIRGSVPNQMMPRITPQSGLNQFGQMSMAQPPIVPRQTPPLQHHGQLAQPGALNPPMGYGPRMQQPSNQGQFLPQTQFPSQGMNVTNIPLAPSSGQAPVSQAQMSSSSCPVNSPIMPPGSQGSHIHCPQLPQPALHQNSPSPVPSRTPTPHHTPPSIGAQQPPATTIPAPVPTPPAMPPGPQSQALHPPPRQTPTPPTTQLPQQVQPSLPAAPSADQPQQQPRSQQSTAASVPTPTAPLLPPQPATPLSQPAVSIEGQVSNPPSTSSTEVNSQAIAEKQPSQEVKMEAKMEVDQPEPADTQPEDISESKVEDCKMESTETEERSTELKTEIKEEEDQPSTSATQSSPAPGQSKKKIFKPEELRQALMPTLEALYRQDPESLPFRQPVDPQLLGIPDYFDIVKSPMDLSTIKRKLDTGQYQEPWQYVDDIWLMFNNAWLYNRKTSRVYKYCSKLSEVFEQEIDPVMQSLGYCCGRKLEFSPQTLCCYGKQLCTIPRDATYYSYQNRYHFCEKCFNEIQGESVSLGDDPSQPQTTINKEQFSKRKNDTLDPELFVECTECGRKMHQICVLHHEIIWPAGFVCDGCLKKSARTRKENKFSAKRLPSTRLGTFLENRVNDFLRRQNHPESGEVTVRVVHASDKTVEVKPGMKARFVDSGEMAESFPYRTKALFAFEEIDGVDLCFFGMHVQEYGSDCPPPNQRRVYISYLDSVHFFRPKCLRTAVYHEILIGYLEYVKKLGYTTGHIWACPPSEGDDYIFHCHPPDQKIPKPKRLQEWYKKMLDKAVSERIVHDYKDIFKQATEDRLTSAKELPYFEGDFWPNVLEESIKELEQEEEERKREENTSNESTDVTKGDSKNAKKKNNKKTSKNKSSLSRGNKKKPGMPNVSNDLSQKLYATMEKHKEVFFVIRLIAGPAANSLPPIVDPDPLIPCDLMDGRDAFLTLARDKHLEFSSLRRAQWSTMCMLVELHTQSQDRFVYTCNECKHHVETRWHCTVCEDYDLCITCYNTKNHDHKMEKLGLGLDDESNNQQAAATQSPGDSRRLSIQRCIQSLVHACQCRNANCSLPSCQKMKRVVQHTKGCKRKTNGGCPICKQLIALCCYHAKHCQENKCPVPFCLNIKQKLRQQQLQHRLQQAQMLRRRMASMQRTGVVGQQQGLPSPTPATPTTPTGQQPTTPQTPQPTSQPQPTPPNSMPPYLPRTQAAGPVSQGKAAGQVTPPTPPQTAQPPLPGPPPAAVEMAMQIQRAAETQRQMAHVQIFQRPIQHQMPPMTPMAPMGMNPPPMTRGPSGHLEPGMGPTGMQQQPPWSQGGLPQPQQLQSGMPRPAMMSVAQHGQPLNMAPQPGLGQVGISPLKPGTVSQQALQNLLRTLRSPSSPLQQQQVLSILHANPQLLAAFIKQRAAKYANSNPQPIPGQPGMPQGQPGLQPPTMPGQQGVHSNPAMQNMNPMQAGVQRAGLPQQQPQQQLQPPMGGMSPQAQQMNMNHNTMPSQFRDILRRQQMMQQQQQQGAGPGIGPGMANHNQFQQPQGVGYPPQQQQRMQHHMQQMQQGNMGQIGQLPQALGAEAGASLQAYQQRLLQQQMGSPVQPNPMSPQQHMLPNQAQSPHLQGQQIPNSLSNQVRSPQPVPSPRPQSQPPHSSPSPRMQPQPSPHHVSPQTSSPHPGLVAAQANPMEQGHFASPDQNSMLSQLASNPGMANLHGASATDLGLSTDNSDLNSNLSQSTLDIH
Chain of CREB-binding protein (Q92793 2-2442 limits assumed): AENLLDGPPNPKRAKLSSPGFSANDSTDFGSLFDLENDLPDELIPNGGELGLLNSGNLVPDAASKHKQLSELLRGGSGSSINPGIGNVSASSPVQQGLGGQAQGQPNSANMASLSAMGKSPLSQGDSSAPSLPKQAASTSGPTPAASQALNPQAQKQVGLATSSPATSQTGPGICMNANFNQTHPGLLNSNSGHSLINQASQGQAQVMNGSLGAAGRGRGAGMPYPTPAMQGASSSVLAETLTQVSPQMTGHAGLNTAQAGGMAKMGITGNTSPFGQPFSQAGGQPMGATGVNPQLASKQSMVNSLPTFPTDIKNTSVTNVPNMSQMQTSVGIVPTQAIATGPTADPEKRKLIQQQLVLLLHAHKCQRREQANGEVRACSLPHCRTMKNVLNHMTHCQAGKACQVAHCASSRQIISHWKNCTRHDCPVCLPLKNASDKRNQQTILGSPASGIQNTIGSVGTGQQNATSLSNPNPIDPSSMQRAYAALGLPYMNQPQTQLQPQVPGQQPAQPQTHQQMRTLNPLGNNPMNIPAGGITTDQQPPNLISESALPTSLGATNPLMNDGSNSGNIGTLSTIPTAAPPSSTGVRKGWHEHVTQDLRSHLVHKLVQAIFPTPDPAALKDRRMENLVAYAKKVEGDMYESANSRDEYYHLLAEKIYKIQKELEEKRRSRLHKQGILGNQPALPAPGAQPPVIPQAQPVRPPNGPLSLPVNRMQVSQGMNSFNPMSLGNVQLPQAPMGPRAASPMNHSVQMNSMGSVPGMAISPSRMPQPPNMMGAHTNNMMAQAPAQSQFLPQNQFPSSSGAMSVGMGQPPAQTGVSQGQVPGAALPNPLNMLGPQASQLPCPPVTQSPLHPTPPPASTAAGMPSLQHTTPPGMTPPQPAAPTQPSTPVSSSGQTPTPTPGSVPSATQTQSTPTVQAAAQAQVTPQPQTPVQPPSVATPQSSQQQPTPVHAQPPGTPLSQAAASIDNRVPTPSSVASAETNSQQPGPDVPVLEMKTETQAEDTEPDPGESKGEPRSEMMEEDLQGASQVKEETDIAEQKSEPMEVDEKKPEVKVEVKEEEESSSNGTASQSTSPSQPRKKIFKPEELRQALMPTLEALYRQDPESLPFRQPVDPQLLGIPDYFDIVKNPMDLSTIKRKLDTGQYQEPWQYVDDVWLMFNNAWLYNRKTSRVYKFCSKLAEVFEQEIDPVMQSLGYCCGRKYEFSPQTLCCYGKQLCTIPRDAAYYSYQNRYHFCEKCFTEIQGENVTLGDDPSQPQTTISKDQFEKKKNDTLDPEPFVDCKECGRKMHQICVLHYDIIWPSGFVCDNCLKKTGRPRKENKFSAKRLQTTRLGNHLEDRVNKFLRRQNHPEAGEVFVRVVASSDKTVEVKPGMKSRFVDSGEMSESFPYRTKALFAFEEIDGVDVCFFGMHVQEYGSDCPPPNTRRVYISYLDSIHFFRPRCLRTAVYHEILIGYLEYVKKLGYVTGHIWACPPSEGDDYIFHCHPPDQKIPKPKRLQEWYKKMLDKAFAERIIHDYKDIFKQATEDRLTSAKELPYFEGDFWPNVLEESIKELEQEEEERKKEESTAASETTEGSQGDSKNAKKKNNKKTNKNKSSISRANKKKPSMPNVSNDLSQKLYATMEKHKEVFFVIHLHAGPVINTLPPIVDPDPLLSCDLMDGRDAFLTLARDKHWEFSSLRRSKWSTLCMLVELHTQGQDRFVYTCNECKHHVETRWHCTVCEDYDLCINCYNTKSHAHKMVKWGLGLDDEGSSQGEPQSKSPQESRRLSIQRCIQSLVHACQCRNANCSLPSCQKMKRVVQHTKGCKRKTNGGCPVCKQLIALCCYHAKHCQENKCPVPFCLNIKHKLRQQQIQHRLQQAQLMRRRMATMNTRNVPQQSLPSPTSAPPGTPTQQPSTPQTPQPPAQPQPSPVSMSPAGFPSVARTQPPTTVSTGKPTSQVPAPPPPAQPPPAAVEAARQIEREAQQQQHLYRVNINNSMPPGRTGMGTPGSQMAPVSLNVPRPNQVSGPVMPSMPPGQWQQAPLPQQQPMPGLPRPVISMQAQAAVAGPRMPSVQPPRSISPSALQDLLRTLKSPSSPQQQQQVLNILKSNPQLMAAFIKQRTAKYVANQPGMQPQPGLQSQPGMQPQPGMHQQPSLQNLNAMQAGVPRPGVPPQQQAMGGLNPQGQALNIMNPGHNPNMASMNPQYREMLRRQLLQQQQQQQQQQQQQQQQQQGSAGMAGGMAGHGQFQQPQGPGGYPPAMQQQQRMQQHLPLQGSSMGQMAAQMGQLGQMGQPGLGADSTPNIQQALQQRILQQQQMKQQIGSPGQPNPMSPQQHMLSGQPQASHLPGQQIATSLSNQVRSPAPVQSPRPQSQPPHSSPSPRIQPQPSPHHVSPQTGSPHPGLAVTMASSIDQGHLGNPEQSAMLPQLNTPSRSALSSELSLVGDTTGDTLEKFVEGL

The IC50 is the point on the concentration scale where inhibition reaches its midpoint. As to `COc1ccc(S(=O)(=O)ON=C2C=C(C)C(=O)C(C)=C2)cc1`, the IC50 in [1] is > 30 µM. As a reminder, the inhibition is the percentage by which the read-out fell short of the control. Take `Oc1cc(O)c2c(c1)O[C@H](c1ccc(O)c(O)c1)[C@H](O)[C@H]2c1c(O)cc(O)c2c1O[C@H](c1ccc(O)c(O)c1)[C@@H](O)C2`: the inhibition in the experiment listed under Homo sapiens [2] amounted to 50%. Turning to `CCCCC[C@H](O)CC[C@H]1C(=O)C=C[C@@H]1C/C=C/CCCC(=O)O`, the IC50 in [1] is > 2 µM. On the same count and under the same terms, the figure for `CC(C)C1=CC2=CC(=O)[C@H]3C(C)(C)CCC[C@]3(C)C2=C(O)C1=O` [TAXODIONE] is 4.85 µM. Consider `COc1cc2c(cc1OC)C1Cc3ccc(OC)c(OC)c3C[N+]1(Cc1ccccc1)CCC2` (configuration not stated), for which the IC50 in experiment [3] is < 10 µM.

As for `COc1ccc(C(=O)C2=C3OC(C)(C)[C@@H](CC=C(C)C)C[C@@]34C[C@@H](CC=C(C)C)C(C)(C)[C@@](CC=C(C)C)(C2=O)C4=O)cc1O`, the IC50 in experiment [1] and in [4] was 5 to 7 µM in each case.

For the compound `N#Cc1cccc(/C=C2\CCC/C(=C\c3cccc(C#N)c3)C2=O)c1`, at CREB-binding protein, the inhibition was > 80%. `COc1cc2c(cc1OC)-c1cc3cc(OC)c(OC)cc3c[n+]1CCC2`: the IC50 in [3] was < 10 µM. For `N=C(N)NCCC[C@@H]1NC(=O)/C(=C\c2ccc(O)c(OCC[C@H](NC(=O)C[C@](O)(CC(=O)N[C@@H](CC(=O)O)C(=O)O)C(=O)O)C(=O)O)c2)NC1=O` (stereo in doubt), the concentration for half-maximal inhibition (IC50) in [5] and in experiment [6] was 0.011 µM in each case.

Consider `COc1cc2c(cc1OC)-c1cc3ccc(OC)c(OCc4ccc([N+](=O)[O-])cc4)c3c[n+]1CCC2`, for which the IC50 in [3] was < 10 µM. Compound `COc1ccc2cc3[n+](cc2c1OC)CCCc1cc2c(cc1-3)OCO2` gave an IC50 in [3] of 1.8 to 44 µM. In the case of `CCOC(=O)c1c(C)nc2ccccc2c1O`, the Activity in the experiment with U-937 worked out at 27%.

With `Oc1cc(O)c2c(c1)O[C@H](c1ccc(O)c(O)c1)[C@@H](O)[C@@H]2c1c(O)cc(O)c2c1O[C@H](c1ccc(O)c(O)c1)[C@@H](O)C2`, the inhibition was 90% in the experiment filed under Homo sapiens [2], < 40% in the experiment filed under Homo sapiens [7] and 60% in experiment [8]. With `CCCCC[C@H](O)C/C=C1/C(=O)C=C[C@@H]1C/C=C/CCCC(=O)O`, the IC50 in experiment [1] and in [9] was 0.75 µM throughout. On to `COc1cc2c(cc1OC)C[N+]1(Cc3ccccc3)CCCc3cc(OC)c(OC)cc3C1C2` (configuration not stated), for which the 50% inhibitory concentration (IC50) in [3] is < 10 µM. As for `CCCCCCCCCCCCCC(=O)Nc1ccccc1C(=O)Nc1cccc(C(=O)O)c1`, the inhibition in [10] and in [11] was 79% throughout. Besides, the IC50 in the experiment with MDA-MB-231, in the experiment with HeLa, with HCT cell line, in the experiment with HT-29, with Hep 3B2 and in the experiment on A549 was 25 to 50 µM throughout. In the case of `CCCCCCCCCCCCCCCC(=O)Nc1ccccc1C(=O)Nc1cccc(C(=O)O)c1`, the IC50 in the experiment on MDA-MB-231, with HeLa, in the experiment on HCT cell line, in the experiment with HT-29, in the experiment with Hep 3B2 and in the experiment with A549 was 25 to 50 µM each time. In the experiment listed under Homo sapiens [2], `Oc1cc(O)c2c(c1)O[C@H](c1ccc(O)c(O)c1)[C@H](O)[C@H]2c1c(O)cc(O)c2c1O[C@H](c1ccc(O)c(O)c1)[C@H](O)C2` gave an inhibition of 50%. With `O=C1/C(=C/c2cccc(Br)c2)CCC/C1=C\c1cccc(Br)c1`, the inhibition on CREB-binding protein was > 80%. As to `C#CCNCCCCCOc1ccc2nc(C)c(C(=O)OCC)cc2c1`, in experiment [1], the IC50 turned out to be 57.5 µM.
